Test results from patent publication US20010055753A1, “Method to regulate CD40 signaling” (National Jewish Medical and Research Center, priority 1995, published 2001).

Key:
[1] = test system: p42^erk2; test: ERK kinase assay with EGFR662-681 peptide substrate, Ramos cells; assay type: cell-based, human; conditions: 100 ng/ml PMA for 20 min, control about 10,000 cpm
Description: Kinase activity was evaluated using EGFRF662-681 peptide as a substrate as described previously (Franklin et al., J. Immunol. 153:4890-4898, 1994). Following stimulation, 10^6 cells were lysed in 75 μl of lysis buffer (70 mM β-glycerophosphate, pH 7.2, […], 2 mM MgCl2, 1 mM EGTA, 0.5% Triton X-100, 5 μg/ml leupeptin, 2 μg/ml aprotinin and 1 mM DTT) and placed on ice for 15 min. Cell lysates were centrifuged at 14,000 rpm for 10 min and 20 μl of supernatant were removed and mixed with 20 μl of 2×kinase buffer (50 mM β-glycerophosphate, pH 7.2, […], 20 mM MgCl2, […], 1 mM EGTA, 400 μM EGFR662-681 peptide, 200 μM ATP and 0.225 mCi/ml[γ-^32P] ATP [ICN Biochemicals, Costa Mesa, Calif.]). After 15 min at 30° C., 10 μl of 250 mM EDTA was added, and 45 μl of the reaction mixture was spotted onto P-81 phosphocellulose paper (Whatman, Clifton, N.J.). The papers were washed four times (5 min each) in 400 ml of 75 mM phosphoric acid and then radioactivity bound to the filter paper was determined by liquid scintillation counting.

[2] = test system: p42^erk2; test: Immunoblot with anti-ERK2 antibody (mobility shift) in Ramos cells; assay type: cell-based, human; conditions: PMA 100 ng/ml or anti-IgM 10 μg/ml, anti-CD40 5 μg/ml, 0-60 min
Description: The human Burkitt's lymphoma cell line Ramos was obtained from the American Type Culture Collection (Rockville, Md.), and cells were maintained in RPMI-1640 supplemented with 50 units/ml penicillin-streptomycin, 2 mM glutamine, and 10% FCS. Exponentially growing cells were used in all experiments.
About 1×10^6 Ramos cells were separately treated with 10 μg/ml anti-IgM F(ab′)2 goat anti-human IgM antibody (obtained from Zymed, San Francisco, Calif.) or 5 μg/ml anti-CD40 antibody (G28-5; obtained from Dr. E. A. Clark, Washington University, Seattle, Wash.) for 0, 1, 5, 15, 30 or 60 min. Ramos cells were also treated with phorbol 12-myristate 13-acetate (PMA; obtained from Sigma, St Louis, Mo.). Immunoblot analysis was performed on each of the samples using monoclonal anti-ERK2 antibody in the following method. The treated cells were lysed in 100 μl of lysis buffer (25 mM Tris-HCl, pH 7.6, 50 mM NaCl, 0.5% Na deoxycholate, 2% NP-40, 0.2% SDS, 1 mM PMSF, 50 μg/ml aprotinin, 50 μM leupeptin). Lysates were centrifuged for 10 min at 14,000 rpm in an Eppendorf microcentrifuge, 90 μl of supernatants were mixed with 30 μl of 4×Laemmli sample buffer. Samples were boiled for 5 min. Twenty μl of prepared samples were electrophoresed through a 12% SDS-PAGE gel, and proteins were transferred to nitrocellulose membranes. […]

[3] = test system: p38 MAP kinase; test: p38 immunoprecipitation kinase assay with ATF-2 (1-110), neutrophils; assay type: cell-based; conditions: 100 ng/ml LPS, varying time intervals
Description: Neutrophils isolated by the plasma percoll method as previously described (Haslett, C., Am. J. Pathol. 119, 101-110; 1985) were resuspended at about 25×10^6 cells/ml in KRPD containing 0.1% Human Heat Inactivated Platelet-Poor Plasma, 1 mM PMSF, 10, μg/ml leupeptin and 10 μg/ml aprotinin. About 25×10^6 PMN were preincubated for 30 minutes at 37° C., then stimulated with 100 ng/ml LPS for varying time intervals and reactions terminated by a 20 second centrifugation at 15,000 rpm. Cell pellets were lysed with 500 μl cold RIPA (50 mM Tris pH=7.2, 150 mM NaCl, 1.1% SDS, 0.1% sodium deoxycholate, 1% Triton-X-100, 10 mM sodium pyrophosphate, 25 mM M glycerophosphate, 1 mM sodium orthovanadate and 2.1 μg/ml aprotinin), and centrifuged at 15,000 for 10 minutes at 4° C. Triton soluble lysates were initial precleared with Protein A Sepharose for 30 minutes at 4° C., followed by Protein A Sepharose immunoprecipitation with 5 μl/sample polyclonal antibodies specific for p38 and 15 μl of bead suspension, for 120 minutes at 4° C. Beads were washed once in RIPA and twice in PAN (10 mM Pipes, 100 mM NaCl, pH=7.0, and 21 μg/ml aprotinin). […] Reactions were terminated with 2×Laemelli buffer and after boiling, proteins were separated by SDS-PAGE, with quantification of activity by autoradiography and phosphorimaging, and qualitative analysis of enzyme presence and phosphorylation by Western Blotting.

Compound	kinase activity (32P incorporation into EGFR662-681 peptide) [1]	ERK2 mobility shift (bands reactive with anti-ERK2 antibody) [2]	p38 MAP kinase activation [3]
CCCCCCCCCCCCCC(=O)O[C@@H]1[C@@H](C)[C@@]2(O)[C@@H](C=C(CO)C[C@]3(O)C(=O)C(C)=C[C@@H]23)[C@@H]2C(C)(C)[C@]12OC(C)=O [PMA, phorbol 12-myristate 13-acetate]	about 30,000 counts per minute	a second band with immunoreactivity to anti-ERK2 antibody appeared	
lipopolysaccharide			activated
